This is an account of results in ChEMBL document CHEMBL1148272, “3D-QSAR studies on PU3 analogues by comparative molecular field analysis” (Bioorg Med Chem Lett, 2004).

This assay has as its system MCF7. In words: Antiproliferative activity evaluated against MCF-7 cell line. The following applies: Homo sapiens. Type of assay: functional, cell-based.
For the compound `CCCCn1c(Cc2cc(OC)c(OC)c(OC)c2Cl)nc2c(N)ncnc21`, the IC50 (in general, the midpoint of a concentration-inhibition curve) is 19.1 µM. `C#CCCCn1c(Cc2cc(OC)c(OC)c(OC)c2Cl)nc2c(N)nc(F)nc21` had an IC50 of 2 µM. In the case of `CCCCn1c(Cc2cc(OC)c(OC)c(OC)c2)nc2c(N)ncnc21` it was 50.1 µM; in that of `COc1cc(Cc2nc3c(N)ncnc3n2C)cc(OC)c1OC`, 70.8 µM.

Regarding `CCCCn1c(Cc2cc(OC)c(OC)c(OC)c2)nc2c(N)nc(F)nc21`, the IC50 is 24 µM. This IC50 lies about 2.9-fold lower than the previous one. In the case of `C#CCCCn1c(Cc2cc(OC)c(OC)c(OC)c2)nc2c(N)ncnc21` it was 24 µM; in that of `COCCn1c(Cc2cc(OC)c(OC)c(OC)c2)nc2c(N)nc(F)nc21`, 64.6 µM. As for `COc1cc(Cc2nc3c(N)ncnc3n2CC(C)C)cc(OC)c1OC`, the figure is 97.7 µM; as for `COc1cc(Cc2nc3c(N)nc(F)nc3n2CC2CCC2)cc(OC)c1OC`, 40.7 µM; as for `CCCn1c(Cc2cc(OC)c(OC)c(OC)c2)nc2c(N)ncnc21`, 46.8 µM. In the case of `CCCn1c(Cc2cc(OC)c(OC)c(OC)c2)nc2c(N)nc(F)nc21` it was 25.1 µM; in that of `COc1cc(Cc2nc3c(N)nc(F)nc3n2CCOC(C)C)cc(OC)c1OC`, 15.8 µM. Take `COc1cc(Cc2nc3c(N)ncnc3n2CC2CCCO2)cc(OC)c1OC` (stereo not given): it took 91.2 µM to reach half-maximal inhibition (IC50). For the compound `COc1cc(Cc2nc3c(N)ncnc3n2CCCC(C)C)cc(OC)c1OC`, the IC50 is 69.2 µM. As for `COc1cc(Cc2nc3c(N)ncnc3n2CC(OC)OC)cc(OC)c1OC`, the figure is 72.4 µM.

As to `CCCCn1c(Cc2cc(OC)c(OC)c(OC)c2Br)nc2c(N)ncnc21`, the IC50 is 25.1 µM. This IC50 lies about 2.9-fold lower than the previous one. The compound `CC/C=C\Cn1c(Cc2cc(OC)c(OC)c(OC)c2)nc2c(N)ncnc21` had a 50% inhibitory concentration (IC50) of 64.6 µM. As for `CCC(C)Cn1c(Cc2cc(OC)c(OC)c(OC)c2)nc2c(N)ncnc21` (stereo not given), the figure is 61.7 µM; as for `C=CCCn1c(Cc2cc(OC)c(OC)c(OC)c2)nc2c(N)nc(F)nc21`, 33.1 µM; as for `CCCCCn1c(Cc2cc(OC)c(OC)c(OC)c2)nc2c(N)ncnc21`, 61.7 µM. In the case of `C=CCCn1c(Cc2cc(OC)c(OC)c(OC)c2)nc2c(N)ncnc21` it was 40.7 µM. As for `COc1cc(Cc2nc3c(N)ncnc3n2CC2(C)CC2)cc(OC)c1OC`, the figure is 112 µM. `C#CCCCn1c(Cc2cc(OC)c(OC)c(OC)c2)nc2c(N)nc(F)nc21` showed an IC50 of 11 µM. This IC50 is about 10-fold lower than that of the compound before. In the case of `CC/C=C/Cn1c(Cc2cc(OC)c(OC)c(OC)c2)nc2c(N)ncnc21` it was 46.8 µM; in that of `COc1cc(Cc2nc3c(N)ncnc3n2CC2CCC2)cc(OC)c1OC`, 45.7 µM; in that of `CCn1c(Cc2cc(OC)c(OC)c(OC)c2)nc2c(N)ncnc21`, 79.4 µM. As for `CCCCCn1c(Cc2cc(OC)c(OC)c(OC)c2)nc2c(N)nc(F)nc21`, the figure is 36.3 µM; as for `COc1cc(Cc2nc3c(N)nc(F)nc3n2CCOC(C)C)c(Cl)c(OC)c1OC`, 5.37 µM; as for `CC[C@H](C)Cn1c(Cc2cc(OC)c(OC)c(OC)c2)nc2c(N)nc(F)nc21`, 43.7 µM. As for `COc1cc(Cc2nc3c(N)nc(F)nc3n2CC2CCCO2)cc(OC)c1OC` (stereo not given), the figure is 22.9 µM. Turning to `CCCCn1c(Cc2c(Br)c(OC)c(OC)c(OC)c2Br)nc2c(N)ncnc21`, the IC50 is 30.2 µM. In the case of `C/C=C/Cn1c(Cc2cc(OC)c(OC)c(OC)c2)nc2c(N)ncnc21` it was 51.3 µM. As for `C#CCCn1c(Cc2cc(OC)c(OC)c(OC)c2)nc2c(N)nc(F)nc21`, the figure is 25.1 µM; as for `COCCn1c(Cc2cc(OC)c(OC)c(OC)c2)nc2c(N)ncnc21`, 64.6 µM. As for `CC#CCCn1c(Cc2cc(OC)c(OC)c(OC)c2)nc2c(N)nc(F)nc21`, the figure is 37.2 µM; as for `CCC(CC)Cn1c(Cc2cc(OC)c(OC)c(OC)c2)nc2c(N)ncnc21`, 158 µM.

With `COc1cc(Cc2nc3c(N)ncnc3n2CC2CCCCC2)cc(OC)c1OC`, 39.8 µM corresponded to half-maximal inhibition (IC50). Compound `COc1cc(Cc2nc3c(N)ncnc3n2CCOC(C)C)cc(OC)c1OC` showed an IC50 of 38.9 µM. In the case of `C=CCCCn1c(Cc2cc(OC)c(OC)c(OC)c2)nc2c(N)nc(F)nc21` it was 44.7 µM; in that of `COc1cc(Cc2nc3c(N)ncnc3n2CC2CC2)cc(OC)c1OC`, 75.9 µM.
